Source: PubChem BioAssay (NCI)
Where “and” joins values, the source holds several entries; their conditions need not be identical. Equal values may be shown once.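 In this assay, cells in 96-well plates receive the compound at five concentrations for 48 hours. Endpoints are linearly interpolated between the surrounding concentrations. At the GI50, growth is halved. TGI marks complete inhibition of growth.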

Legend:
Assay in all cases: NCI tumour cell line growth inhibition, 48 h
A498 renal = tested on: A498 renal
MCF7 breast = tested on: MCF7 breast
M14 melanoma = tested on: M14 melanoma
KM12 colon = tested on: KM12 colon
RXF 393 renal = tested on: RXF 393 renal
UACC-62 melanoma = tested on: UACC-62 melanoma
SNB-75 CNS = tested on: SNB-75 CNS
ACHN renal = tested on: ACHN renal
HOP-92 NSCLC = tested on: HOP-92 NSCLC
OVCAR-8 ovarian = tested on: OVCAR-8 ovarian

SMILES | GI50 (A498 renal) | TGI (A498 renal) | GI50 (MCF7 breast) [µM] | TGI (MCF7 breast) [µM] | GI50 (M14 melanoma) | TGI (M14 melanoma) | GI50 (KM12 colon) | TGI (KM12 colon) | GI50 (RXF 393 renal) | TGI (RXF 393 renal) | GI50 (UACC-62 melanoma) | TGI (UACC-62 melanoma) | GI50 (SNB-75 CNS) | TGI (SNB-75 CNS) | GI50 (ACHN renal) | TGI (ACHN renal) | GI50 (HOP-92 NSCLC) | TGI (HOP-92 NSCLC) | GI50 (OVCAR-8 ovarian) | TGI (OVCAR-8 ovarian)
COc1cc(C(O)c2nc3ccccc3s2)cc(OC)c1OC (configuration not stated) | 3.18 µM | > 100 µM | 41.3 | > 100 | 85.3 µM | > 100 µM | 78.3 µM | > 100 µM | > 100 µM | > 100 µM | 37.8 µM | > 100 µM | 33.2 µM | > 100 µM | 65.5 µM | > 100 µM | 1.15 µM | 31.2 µM | > 100 µM | > 100 µM
CCCCCCCCCCC(O)[C@H]1CCC(C2CC[C@H]([C@H](O)CCCCCCCCCCC(O)CC3=CC(C)OC3=O)O2)O1 (some centres not stated) | 3.15 µM | 9.03 µM and 53.2 µM | – | 4.44 | 7 µM | – | – | 3.66 µM | – | 5 µM | 1.97 µM | 4.03 µM and 14.2 µM | 2.25 µM | 5.08 µM and 5.94 µM | – | 2.9 µM | – | 5.87 µM and 6.72 µM | 2.29 µM | 2.8 µM and 18.4 µM
COc1ccc(C(=O)/C=C/c2c(C(F)(F)F)nc3sccn23)cc1OC | 7.58 µM | 54.9 µM | 0.766 | 34.9 | 2.67 µM | > 100 µM | 1.97 µM | 11.1 µM | 2.51 µM | 29.8 µM | 4.85 µM | > 100 µM | 6.87 µM | > 100 µM | 5.1 µM | > 100 µM | 5.87 µM | 59.6 µM | 2.4 µM | > 100 µM
Cc1nc2sc(C(=O)Nc3cccc4ccccc34)c(N)c2cc1C(=O)/C=C/c1ccccc1 | 0.337 µM | 1.87 µM | 0.201 | > 50 | 0.181 µM | 1.68 µM | 0.368 µM | 1.25 µM | 0.203 µM | 0.776 µM | 0.235 µM | 3.8 µM | 0.232 µM | > 10.4 µM | 0.304 µM | 1.25 µM | 0.37 µM | 8.97 µM | 0.534 µM | > 13.4 µM
O=C1c2ccc3c4c5ccc(c24)C(=O)N1CCCOCCCCOCCCNCc1ccc(cc1)CNCCCOCCCCOCCCN(C3=O)C5=O | 7.89 µM | 15 µM | 0.686 | 1.6 | 0.923 µM | 1.75 µM | 0.896 µM | 2.06 µM | 0.764 µM | 1.57 µM | 0.889 µM | 1.63 µM | 0.724 µM | 1.48 µM | 0.859 µM | 1.57 µM | 0.782 µM | 2.08 µM | 1.06 µM | 2.74 µM
CN(C)c1ccc(-c2cc(-c3ccc(Nc4nc(Nc5ccccc5)nc(Nc5ccc(Cl)cc5)n4)cc3)nc(N)n2)cc1 | 4.63 µM | 20.1 µM | 2.84 | 15 | 3.65 µM | 17.6 µM | 3.06 µM | 13 µM | 2.78 µM | 12.9 µM | 6.26 µM | 40 µM | 3.27 µM | 37.7 µM | 5.88 µM | > 100 µM | 1.48 µM | 13.2 µM | 5.24 µM | > 100 µM
C=CC1=C[C@@H]2[C@@H]3O[C@]4(CC[C@H](O4)[C@@H](C)C[C@@H](O)C3=O)C[C@H](O)C3=NCC[C@@]32CC1 | < 0.00333 µM | < 0.00333 µM | < 0.00333 | < 0.00333 | < 0.00333 µM | < 0.00333 µM | < 0.00333 µM | 0.0061 µM | < 0.00333 µM | < 0.00333 µM | < 0.00333 µM | 0.00412 µM | < 0.00333 µM | < 0.00333 µM | < 0.00333 µM | < 0.00333 µM | < 0.00333 µM | 0.00606 µM | < 0.00333 µM | 0.044 µM
O=C(CCCCCCSc1nc(-c2ccccc2)cc(-c2ccccc2)n1)NO | 1.69 µM | 4.05 µM | 1.31 | 15.9 | 1.58 µM | 5.94 µM | 3.22 µM | 15.9 µM | 1.72 µM | 4.42 µM | 1.35 µM | 3.85 µM | 1.7 µM | 14 µM | 1.45 µM | 3.16 µM | 1.75 µM | 4.95 µM | 1.79 µM | 16.9 µM
CS(=O)(=O)c1ccc(-c2cnc(N)c(C(=O)Nc3ccccc3)n2)cc1 | 6.59 µM | > 100 µM | 10.8 | > 100 | 20.7 µM | > 100 µM | > 100 µM | > 100 µM | 2.69 µM | > 50.1 µM | > 51.9 µM | > 100 µM | 7.22 µM | > 100 µM | 3.92 µM | 29.6 µM | 24.3 µM | > 100 µM | > 45 µM | > 100 µM
C/C([O-])=C1\Cc2ccccc2C1=O.C/C([O-])=C1\Cc2ccccc2C1=O.CC[O-].CC[O-].[Ti+4] | 13.4 µM | 31.5 µM | 22 | > 100 | 16.8 µM | 42.3 µM | 17.3 µM | 46.1 µM | 7.3 µM | 21.9 µM | 12.4 µM | 31.6 µM | 21.6 µM | 45.9 µM | 19.1 µM | > 92.2 µM | 18.7 µM | 55.4 µM | 12.9 µM | 50.4 µM
C=C(C)C(=O)OC1CC2=CC(CC3(C)OC3C3OC(=O)C(=C)C13)OC2=O (configuration not stated) | – | 30.2 µM | – | 14.7 | – | 15.4 µM | – | 32.1 µM | – | 9.37 µM | – | 22 µM | – | 28.5 µM | – | 16.7 µM | – | 7.35 µM | – | 18.1 µM
O=C1/C(=C/c2ccccc2F)CNC/C1=C\c1ccccc1F | 0.194 µM and 1.52 µM | 0.978 µM and 2.98 µM | 0.305 | 1.39 | 1.16 µM and 1.2 µM | 3.73 µM and 2.84 µM | 0.189 µM and 0.197 µM | 0.519 µM and 0.39 µM | 0.385 µM and 0.728 µM | 1.12 µM and 1.87 µM | 6.38 µM and 1.5 µM | 10.3 µM and 3.72 µM | 2 µM and 1.54 µM | 4.74 µM and 4.33 µM | 4.86 µM and 0.779 µM | 8.55 µM and 2.58 µM | 2.82 µM and 1.92 µM | 7.37 µM and 4.71 µM | 0.338 µM and 0.369 µM | 4.27 µM and 2.91 µM
Nc1ncnc2c1ncn2CC(O)C(=O)O (configuration not stated) | – | > 100 µM | – | > 100 | – | > 100 µM | – | > 100 µM | – | > 100 µM | – | > 100 µM | – | > 100 µM | – | > 100 µM | – | > 100 µM | – | > 100 µM
C=CCNCCCN1C(=O)c2ccc3c4c(ccc(c24)C1=O)C(=O)N(CCCNCC=C)C3=O | 0.394 µM | 1.76 µM | 0.157 | 0.336 | 0.47 µM | 1.66 µM | 0.417 µM | 1.62 µM | 0.344 µM | 1.52 µM | 0.684 µM | 1.76 µM | 0.999 µM | 2.23 µM | 0.268 µM | 4.38 µM | 1.56 µM | 7.83 µM | 0.312 µM | 2.11 µM
CN(c1ccc(NC(=O)Nc2ccc(OC(F)(F)F)cc2)cc1)c1ccnc(Nc2cccc(S(N)(=O)=O)c2)n1 | 1.15 µM | 3.37 µM | 1.06 | 5.56 | 3.39 µM | 8.03 µM | 0.0157 µM | 3.99 µM | 2.13 µM | 6.04 µM | 3.02 µM | 7.13 µM | 2.38 µM | 6.61 µM | 5.42 µM | 15.5 µM | 2.36 µM | 6.95 µM | 3.07 µM | 7.17 µM
O=Cc1cn(Cc2cccc(Cl)c2)c2ccccc12 | 0.135 µM | 0.299 µM | 1.85 | 19.4 | 11.4 µM | 26.9 µM | 14.7 µM | 35.1 µM | – | > 33 µM | 0.533 µM | 6.45 µM | 8.99 µM | 25.1 µM | 12.9 µM | 26.8 µM | 6.19 µM | 20.8 µM | 10.3 µM | 31.3 µM
CN1CCN(c2nc(NCCCCNc3ccnc4cc(Cl)ccc34)c3ccccc3n2)CC1 | 12.1 µM | 25 µM | 4.3 | 19.1 | 1.83 µM | 3.47 µM | 8.25 µM | 25.1 µM | 1.74 µM | 3.45 µM | 1.96 µM | 3.9 µM | 2.16 µM | 10 µM | 2.52 µM | 7.32 µM | 1.66 µM | 4.12 µM | 4.25 µM | 20.1 µM
O=C1C=C[C@@]23C[C@@H](Nc4c(O)c5c6c(c42)=NCCC=6C=N5)SC3=C1 | 9.04 µM | 25.3 µM | 2 | 4.04 | 2.16 µM | 5.05 µM | – | 18.5 µM | 2.51 µM | 8.81 µM | 1.64 µM | 3.31 µM | 12 µM | 25.3 µM | 3.35 µM | 9.16 µM | 3.18 µM | 10.2 µM | 1.87 µM | 3.66 µM
Cn1ccnc1C(=O)/C=C/c1ccc(CC(=O)Nc2ccc(S(F)(F)(F)(F)F)cc2)cc1 | 3.12 µM | 6.14 µM | 0.625 | 5.54 | 3.16 µM | 6.55 µM | 2.04 µM | 4.7 µM | 2.67 µM | 5.21 µM | 2.89 µM | 5.87 µM | 1.83 µM | 3.88 µM | 2.45 µM | 4.82 µM | 1.13 µM | 3.92 µM | 4.94 µM | 16.5 µM
Cn1c(=O)c(Oc2ccc(F)cc2F)cc2cnc(NC(CO)CO)nc21 | > 25 µM | > 25 µM | > 25 | > 25 | > 25 µM | > 25 µM | > 25 µM | > 25 µM | > 25 µM | > 25 µM | > 25 µM | > 25 µM | > 25 µM | > 25 µM | > 25 µM | > 25 µM | 14.7 µM | > 25 µM | > 25 µM | > 25 µM
CN(CC(=O)O)c1ccc(/C=C/c2ccnc3ccccc23)cc1 | – | 47.1 µM | – | 35.2 | – | 67.7 µM | – | 41.2 µM | – | 49.8 µM | – | 52.2 µM | – | 86.8 µM | – | > 100 µM | – | > 100 µM | – | > 100 µM
